# Patent US20240148664A1, “LIPID AND COMPOSITION” (SOGO PHARMACEUTICAL CO., LTD., priority 2021, published 2024)
# Test system: mice
# Assay: In vivo animal experiment: protein expression level after intramuscular administration of mRNA lipid nanoparticles (IVIS luminescence)
# Conditions: intramuscular left hind leg, 1.25 μg mRNA/mouse, time point of the value not stated
# Protocol: An experiment was carried out in mice in order to evaluate lipid nanoparticles encapsulating an mRNA. By injecting mice with a solution including lipid nanoparticles to transfect the mice and measuring the amount of a predetermined protein produced, the performance of the lipid nanoparticles used can be evaluated. Hereinafter, the procedure of the experiment will be shown.
# By using lipids (Ib), (Ik), and (II) of Examples 2, 11, and 12, lipid nanoparticle-containing solutions for the in vivo animal experiment were prepared. […]
# 50 μL (1.25 μg/mouse, in terms of amount of mRNA) of the solution for administration was intramuscularly administered to the left hind leg of mice. […] 10 Minutes after administration of the luciferin solution, the amount of luminescence at a predetermined time after administration was measured under isoflurane anesthesia with an in vivo imaging system (manufactured by Xenogen, IVIS) to calculate the protein expression level.
compound,measurement,setting,value
"CCCCCCCC/C=C\CCCCCCCCC(CCCCCCC/C=C\CCCCCCCC)OC(=O)C(CCC(=O)O)NC(=O)C(N)CCCNC(=N)N (centres unmarked) [Example 2, 4-(2-amino-5-guanidinopentanamido)-5-(((9Z,27Z)-hexatriaconta-9,27-dien-18-yl)oxy)-5-oxopentanoic acid]",Protein expression level,PEG-modified lipid (PEG2000-DMG 1.5 mol %) present,"130,000"
same,Protein expression level,PEG-modified lipid absent,"13,000"
